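Interpolation was linear, between the two tested concentrations surrounding the appropriate level; five concentrations were tested over 48 hours in 96-well plates. GI50: concentration for 50% inhibition of growth.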 Calls of active or inactive are those of the source. No stated cut-off is given here; in the data, active = GI50 up to about 1.1 µM and inactive = higher.
What was measured:
Experiment in all cases: NCI anticancer screen, dose series, 48 h
HCT-116 = system: HCT-116
NCI-H226 = system: NCI-H226
Malme-3M = system: Malme-3M
LXFL 529 = system: LXFL 529
CCRF-CEM = system: CCRF-CEM
SW-620 = system: SW-620
NCI-H23 = system: NCI-H23
RPMI-8226 = system: RPMI-8226
UACC-62 = system: UACC-62
LOX IMVI = system: LOX IMVI
OVCAR-3 = system: OVCAR-3
UO-31 = system: UO-31
M19-MEL = system: M19-MEL
U-251 = system: U-251
CAKI-1 = system: CAKI-1
KM-20L2 = system: KM-20L2
MOLT-4 = system: MOLT-4
A549 = system: A549
HL-60 = system: HL-60
SK-MEL-5 = system: SK-MEL-5
DMS-273 = system: DMS-273
SF-539 = system: SF-539
786-0 = system: 786-0
XF498 = system: XF498
EKVX = system: EKVX
HT-29 = system: HT-29
SNB-78 = system: SNB-78
M14 = system: M14
SNB-75 = system: SNB-75
TK-10 = system: TK-10
SN12C = system: SN12C
SF-268 = system: SF-268
SF-295 = system: SF-295
K562 = system: K562
UACC-257 = system: UACC-257
KM12 = system: KM12
SK-OV-3 = system: SK-OV-3
SK-MEL-28 = system: SK-MEL-28
IGROV-1 = system: IGROV-1
HOP-92 = system: HOP-92
SK-MEL-2 = system: SK-MEL-2
DLD-1 = system: DLD-1
SR = system: SR
SNB-19 = system: SNB-19
ACHN = system: ACHN
NCI-H522 = system: NCI-H522
RXF 393 = system: RXF 393
OVCAR-5 = system: OVCAR-5
HOP-62 = system: HOP-62
HCC 2998 = system: HCC 2998
OVCAR-4 = system: OVCAR-4
DMS-114 = system: DMS-114
HCT-15 = system: HCT-15
NCI/ADR-RES = system: NCI/ADR-RES
A498 = system: A498
Hs-578T = system: Hs-578T
COLO 205 = system: COLO 205
MDA-MB-435 = system: MDA-MB-435
OVCAR-8 = system: OVCAR-8
DU-145 = system: DU-145
NCI-H460 = system: NCI-H460
BT-549 = system: BT-549
T47D = system: T47D
MCF7 = system: MCF7
MDA-N = system: MDA-N
MDA-MB-231 = system: MDA-MB-231
PC-3 = system: PC-3

Structure (SMILES): CCOc1ccccc1NC(=O)CCc1n[nH]c(=S)o1
- GI50 (HCT-116): > 100 µM (inactive)
- GI50 (NCI-H226): > 100 µM (inactive)
- GI50 (Malme-3M): > 100 µM (inactive)
- GI50 (LXFL 529): > 100 µM (inactive)
- GI50 (CCRF-CEM): > 100 µM (inactive)
- GI50 (SW-620): > 100 µM (inactive)
- GI50 (NCI-H23): > 100 µM (inactive)
- GI50 (RPMI-8226): > 100 µM (inactive)
- GI50 (UACC-62): > 100 µM (inactive)
- GI50 (LOX IMVI): > 100 µM (inactive)
- GI50 (OVCAR-3): > 100 µM (inactive)
- GI50 (UO-31): 63.4 µM (inactive)
- GI50 (M19-MEL): > 100 µM (inactive)
- GI50 (U-251): > 100 µM (inactive)
- GI50 (CAKI-1): > 100 µM (inactive)
- GI50 (KM-20L2): > 100 µM (inactive)
- GI50 (MOLT-4): > 100 µM (inactive)
- GI50 (A549): > 100 µM (inactive)
- GI50 (HL-60): > 100 µM (inactive)
- GI50 (SK-MEL-5): > 100 µM (inactive)
- GI50 (DMS-273): > 100 µM (inactive)
- GI50 (SF-539): > 100 µM (inactive)
- GI50 (786-0): > 100 µM (inactive)
- GI50 (XF498): > 100 µM (inactive)
- GI50 (EKVX): > 100 µM (inactive)
- GI50 (HT-29): > 100 µM (inactive)
- GI50 (SNB-78): > 100 µM (inactive)
- GI50 (M14): > 100 µM (inactive)
- GI50 (SNB-75): > 100 µM (inactive)
- GI50 (TK-10): > 100 µM (inactive)
- GI50 (SN12C): > 100 µM (inactive)
- GI50 (SF-268): > 100 µM (inactive)
- GI50 (SF-295): > 100 µM (inactive)
- GI50 (K562): > 100 µM (inactive)
- GI50 (UACC-257): > 100 µM (inactive)
- GI50 (KM12): > 100 µM (inactive)
- GI50 (SK-OV-3): > 100 µM (inactive)
- GI50 (SK-MEL-28): > 100 µM (inactive)
- GI50 (IGROV-1): > 10 µM (inactive)
- GI50 (HOP-92): > 100 µM (inactive)
- GI50 (SK-MEL-2): > 100 µM (inactive)
- GI50 (DLD-1): > 100 µM (inactive)
- GI50 (SR): > 100 µM (inactive)
- GI50 (SNB-19): > 100 µM (inactive)
- GI50 (ACHN): > 100 µM (inactive)
- GI50 (NCI-H522): > 100 µM (inactive)

Structure (SMILES): Cc1ccccc1C(=O)C1CCCCC1O (stereo not given)
- GI50 (HCT-116): > 100 µM (inactive)
- GI50 (RXF 393): > 100 µM (inactive)
- GI50 (NCI-H226): > 100 µM (inactive)
- GI50 (Malme-3M): > 100 µM (inactive)
- GI50 (LXFL 529): > 100 µM (inactive)
- GI50 (SW-620): > 100 µM (inactive)
- GI50 (NCI-H23): > 100 µM (inactive)
- GI50 (UACC-62): > 100 µM (inactive)
- GI50 (LOX IMVI): > 100 µM (inactive)
- GI50 (OVCAR-3): > 100 µM (inactive)
- GI50 (UO-31): > 100 µM (inactive)
- GI50 (U-251): > 100 µM (inactive)
- GI50 (OVCAR-5): > 100 µM (inactive)
- GI50 (HOP-62): > 100 µM (inactive)
- GI50 (CAKI-1): > 100 µM (inactive)
- GI50 (KM-20L2): > 100 µM (inactive)
- GI50 (MOLT-4): > 100 µM (inactive)
- GI50 (A549): > 100 µM (inactive)
- GI50 (HL-60): > 100 µM (inactive)
- GI50 (SK-MEL-5): > 100 µM (inactive)
- GI50 (786-0): > 100 µM (inactive)
- GI50 (EKVX): > 100 µM (inactive)
- GI50 (SNB-78): 23.8 µM (inactive)
- GI50 (M14): > 100 µM (inactive)
- GI50 (SNB-75): > 100 µM (inactive)
- GI50 (HCC 2998): > 100 µM (inactive)
- GI50 (TK-10): > 100 µM (inactive)
- GI50 (SN12C): > 100 µM (inactive)
- GI50 (OVCAR-4): > 100 µM (inactive)
- GI50 (SF-268): > 100 µM (inactive)
- GI50 (K562): > 100 µM (inactive)
- GI50 (KM12): > 100 µM (inactive)
- GI50 (SK-OV-3): > 100 µM (inactive)
- GI50 (IGROV-1): > 100 µM (inactive)
- GI50 (HOP-92): > 100 µM (inactive)
- GI50 (SK-MEL-2): > 100 µM (inactive)
- GI50 (DMS-114): > 100 µM (inactive)
- GI50 (HCT-15): > 100 µM
- GI50 (SNB-19): > 100 µM (inactive)
- GI50 (ACHN): > 100 µM (inactive)

Structure (SMILES): CCCCCC(=O)Nc1[nH]nnc1C(N)=O
- GI50 (HCT-116): > 100 µM (inactive)
- GI50 (NCI/ADR-RES): > 100 µM (inactive)
- GI50 (A498): > 100 µM (inactive)
- GI50 (Hs-578T): > 100 µM (inactive)
- GI50 (RXF 393): > 100 µM (inactive)
- GI50 (COLO 205): > 100 µM (inactive)
- GI50 (NCI-H226): > 100 µM (inactive)
- GI50 (Malme-3M): > 100 µM (inactive)
- GI50 (CCRF-CEM): > 100 µM (inactive)
- GI50 (SW-620): > 100 µM (inactive)
- GI50 (MDA-MB-435): > 100 µM (inactive)
- GI50 (NCI-H23): > 100 µM (inactive)
- GI50 (RPMI-8226): > 100 µM (inactive)
- GI50 (UACC-62): > 100 µM (inactive)
- GI50 (LOX IMVI): > 100 µM (inactive)
- GI50 (OVCAR-3): > 100 µM (inactive)
- GI50 (UO-31): > 100 µM (inactive)
- GI50 (U-251): > 100 µM (inactive)
- GI50 (OVCAR-5): > 100 µM (inactive)
- GI50 (HOP-62): > 100 µM (inactive)
- GI50 (CAKI-1): > 100 µM (inactive)
- GI50 (OVCAR-8): > 100 µM (inactive)
- GI50 (MOLT-4): > 100 µM (inactive)
- GI50 (A549): > 100 µM (inactive)
- GI50 (HL-60): > 100 µM (inactive)
- GI50 (SK-MEL-5): > 100 µM (inactive)
- GI50 (DU-145): > 100 µM (inactive)
- GI50 (SF-539): > 100 µM (inactive)
- GI50 (786-0): > 100 µM (inactive)
- GI50 (NCI-H460): > 100 µM (inactive)
- GI50 (EKVX): > 100 µM (inactive)
- GI50 (HT-29): > 100 µM (inactive)
- GI50 (BT-549): > 100 µM (inactive)
- GI50 (T47D): > 100 µM (inactive)
- GI50 (M14): > 100 µM (inactive)
- GI50 (SNB-75): > 100 µM (inactive)
- GI50 (HCC 2998): > 100 µM (inactive)
- GI50 (MCF7): > 100 µM (inactive)
- GI50 (MDA-N): > 100 µM (inactive)
- GI50 (MDA-MB-231): > 100 µM (inactive)
- GI50 (TK-10): > 100 µM (inactive)
- GI50 (PC-3): > 100 µM (inactive)
- GI50 (SN12C): > 100 µM (inactive)
- GI50 (OVCAR-4): > 100 µM (inactive)
- GI50 (SF-268): > 100 µM (inactive)
- GI50 (SF-295): > 100 µM (inactive)
- GI50 (K562): > 100 µM (inactive)
- GI50 (UACC-257): > 100 µM (inactive)
- GI50 (KM12): > 100 µM (inactive)
- GI50 (SK-OV-3): > 100 µM (inactive)
- GI50 (SK-MEL-28): > 100 µM (inactive)
- GI50 (IGROV-1): > 100 µM (inactive)
- GI50 (HOP-92): 92.5 µM (inactive)
- GI50 (SK-MEL-2): > 100 µM (inactive)
- GI50 (SR): > 100 µM (inactive)
- GI50 (HCT-15): > 100 µM
- GI50 (SNB-19): > 100 µM (inactive)
- GI50 (ACHN): > 100 µM (inactive)
- GI50 (NCI-H522): > 100 µM (inactive)
